Earlier results in US6669955B2, “Combination dosage form containing individual dosage units of a cholesterol-lowering agent, an inhibitor of the renin-angiotensin system, and aspirin” (Longwood Pharmaceutical Research, Inc., priority 2001, dated 2003).

Experiments:
[1] = test system: patients at risk for cardiovascular events; settings: daily administration of low doses (approximately 80 mg); cited from earlier work
blood pressure = settings: relative to angiotensin II; cited from earlier work

Compound | reduction of second heart attacks, strokes, and cardiovascular deaths [1] | hypertensive activity, as share of that of angiotensin II (blood pressure)
CC(=O)Oc1ccccc1C(=O)O [aspirin, acetylsalicylic acid] | at least 25% | 
angiotensin I (DRVYIHPFHL; Angiotensin-1; UniProt P01019 25-34, looked up) [decapeptide formed by renin acting on angiotensinogen] |  | about 1%
